This note sets out measurements from US20250222116A1, “PARP-1 DEGRADATION AGENT AND USE THEREOF” (XIZANG HAISCO PHARMACEUTICAL CO., LTD., priority 2021, published 2025).

Assay [1] has as its target T1, PARP1 (Homo sapiens (Human), UniProt P09874). Briefly: PARP1 protein expression level in MDA-MB-436 cells. Format: cell-based. To be noted: 24 hours. On the procedure: (§1) MDA-MB-436 cells were placed in a complete DMEM medium (supplemented with 15% FBS; 10 μg/mL Insulin; 16 μg/mL Glutathione and 1% penicillin-streptomycin solution), and cultured at 37° C. under CO2-free conditions. The cells in the logarithmic growth phase were collected, the cell density was adjusted to 2×10^5 cells/well with the culture medium, and the cells were added to a 6-well cell culture plate at a volume of 1 mL/well. The compound to be tested was prepared to 2-fold the final concentration, 1 mL of the compounds at different concentrations were added to administration wells, a medium containing 0.2% DMSO was added to control wells, and the plate was incubated for 24 hours at 37° C. The cells were collected into a 1.5 mL centrifuge tube, 25 μL of RIPA lysis buffer (containing 1× protease inhibitor cocktail) was added, and the cells were lysed on ice for 15 minutes and centrifuged at 12000 rpm/min at 4° C. for 10 minutes. The supernatant was collected and the protein content was determined using the BCA method. The protein sample to be tested was diluted to 0.8 mg/mL, PARP1 was detected using a fully automated protein expression quantitative analyzer (ProteinSimple), and the internal reference protein was 3-actin (both antibodies were from CST). The software (Compass for SW) of the fully automated protein expression quantitative analyzer was used to process the raw data and calculate the peak area and the PARP1 expression rate relative to the control group.
as §1, with “L-15” for “DMEM”, “mL/well and cultured overnight. On day 2, the” for “mL/well. The”, “group. DC50 values were calculated using a four-parameter non-linear fitting model in Graphpad 8.3.0 software.” for “group.”

The target in assay [2] is T1, PARP1. Briefly: PARP1 enzyme activity inhibition (chemiluminescence kit). Format: biochemical. On the procedure: (§2) PARP1, PARP2 and PARP7 chemical […] detection kits were all purchased from BPS Bioscience. The histone solution in the kit was diluted 5× with 1×PBS, and 25 μL of the diluted histone solution was added to a microwell plate and incubated overnight at 4° C. After the incubation was completed, the plate was washed three times with PBST (0.05% Tween-20). 25 μL of a blocking solution was added to the microwell plate and incubated at 25° C. for 90 minutes. After the incubation was completed, the plate was washed three times with PBST. 2.5 μL of compounds at different concentrations diluted in test buffer and 5 μL of 2.5× substrate mixed solution were added to the microwell plate. PARP1, PARP2 and PARP7 enzymes were diluted to 0.33, 0.23 and 5.00 ng/μL, respectively, 5 μL of the diluent was added to the microwell plate, and the reaction system was incubated at 25° C. for 60 minutes. After the incubation was completed, the plate was washed three times with PBST. […] ELISA ECL substrate A and substrate B were mixed at a ratio of 1:1 (v/v), 25 μL of the mixture was added to the microwell plate, and the chemiluminescence value was read using a BMG microplate reader.
(§3) Curve fitting was performed by four parameters (log(inhibitor) vs. response−Variable slope) using GraphPad Prism software, and the IC50 value was calculated.

Assay [3] concerns breast tumor cells MDA-MB-436. Description: MDA-MB-436 cell activity test (CellTiter-Glo, 7 days). Format: cell-based, human. To be noted: Homo sapiens. Summed up:
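MDA-MB-436 cells in Leibovitz's L-15 + 10% FBS, 37° C. without CO2, seeded 4000 cells/well overnight, then treated with compound dilutions for 7 days. Viability by CellTiter-Glo luminescence; inhibition relative to solvent control and cell-free blank, IC50 from concentration-response.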
For orientation: In ATP-based viability assays light output follows the ATP content of the culture.

In another assay the target is PARP7 (Homo sapiens (Human), UniProt Q7Z3E1). Briefly: PARP7 enzyme activity inhibition (chemiluminescence kit). Format: biochemical. On the procedure:
as §2, §3

By IC50 is commonly meant the concentration that gives 50% inhibition.

T1 sequence (P09874 whole entry): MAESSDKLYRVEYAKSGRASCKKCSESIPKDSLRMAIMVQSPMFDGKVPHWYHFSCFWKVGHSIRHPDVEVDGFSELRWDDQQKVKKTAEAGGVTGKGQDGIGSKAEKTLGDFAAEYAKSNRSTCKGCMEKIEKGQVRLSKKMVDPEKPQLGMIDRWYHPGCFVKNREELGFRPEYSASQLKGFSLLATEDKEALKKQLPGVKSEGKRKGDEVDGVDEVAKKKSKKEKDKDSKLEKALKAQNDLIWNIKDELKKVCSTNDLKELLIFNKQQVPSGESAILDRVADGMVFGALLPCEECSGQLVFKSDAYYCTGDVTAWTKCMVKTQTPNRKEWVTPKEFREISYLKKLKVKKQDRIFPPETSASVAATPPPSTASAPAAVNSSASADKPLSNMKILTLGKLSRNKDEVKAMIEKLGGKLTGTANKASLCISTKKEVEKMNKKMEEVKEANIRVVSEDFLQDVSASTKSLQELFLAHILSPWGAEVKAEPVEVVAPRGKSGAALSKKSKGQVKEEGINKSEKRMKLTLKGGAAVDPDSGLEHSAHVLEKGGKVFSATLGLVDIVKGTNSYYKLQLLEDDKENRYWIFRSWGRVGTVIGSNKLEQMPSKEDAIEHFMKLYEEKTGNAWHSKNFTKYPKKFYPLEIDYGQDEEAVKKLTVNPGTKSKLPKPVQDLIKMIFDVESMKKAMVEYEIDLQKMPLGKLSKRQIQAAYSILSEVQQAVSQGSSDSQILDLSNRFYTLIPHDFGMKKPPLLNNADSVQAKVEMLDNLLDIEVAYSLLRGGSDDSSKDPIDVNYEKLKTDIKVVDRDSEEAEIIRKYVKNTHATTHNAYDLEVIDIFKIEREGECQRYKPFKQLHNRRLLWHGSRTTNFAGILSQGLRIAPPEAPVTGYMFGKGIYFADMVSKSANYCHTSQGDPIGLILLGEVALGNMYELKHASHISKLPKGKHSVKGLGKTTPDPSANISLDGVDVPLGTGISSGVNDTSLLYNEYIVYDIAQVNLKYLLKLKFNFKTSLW
PARP7, sequence (Q7Z3E1 whole entry): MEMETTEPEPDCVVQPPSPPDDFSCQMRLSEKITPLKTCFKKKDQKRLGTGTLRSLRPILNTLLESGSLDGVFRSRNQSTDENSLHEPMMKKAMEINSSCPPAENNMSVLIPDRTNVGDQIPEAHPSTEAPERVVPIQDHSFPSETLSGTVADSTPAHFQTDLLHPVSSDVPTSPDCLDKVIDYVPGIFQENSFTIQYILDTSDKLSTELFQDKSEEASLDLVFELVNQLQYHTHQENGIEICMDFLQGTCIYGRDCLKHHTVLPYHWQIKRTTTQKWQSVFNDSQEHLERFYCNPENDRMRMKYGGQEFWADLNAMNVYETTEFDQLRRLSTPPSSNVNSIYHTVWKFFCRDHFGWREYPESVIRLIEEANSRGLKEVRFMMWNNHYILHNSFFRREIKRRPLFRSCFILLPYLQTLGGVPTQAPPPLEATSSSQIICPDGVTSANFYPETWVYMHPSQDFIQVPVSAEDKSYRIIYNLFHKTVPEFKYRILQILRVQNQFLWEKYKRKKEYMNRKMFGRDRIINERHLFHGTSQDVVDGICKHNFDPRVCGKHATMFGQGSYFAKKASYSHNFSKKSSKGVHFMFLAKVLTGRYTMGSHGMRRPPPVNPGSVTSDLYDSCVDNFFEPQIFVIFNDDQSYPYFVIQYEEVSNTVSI

Consider `CCc1cc2ncc(CN3CCN(c4ccc(C(=O)NC5CCN(c6ccc7c(c6)C(=O)N(C6CCC(=O)NC6=O)C7=O)CC5)nc4)CC3)cc2[nH]c1=O` (stereo not shown) [Compound 10, N-(1-(2-(2,6-dioxopiperidin-3-yl)-1,3-dioxoisoindolin-5-yl)piperidin-4-yl)-5-(4-((7-ethyl-6-oxo-5,6-dihydro-1,5-naphthyridin-3-yl)methyl)piperazin-1-yl)picolinamide], for which the “PARP1 degradation rate @ 100 nM” value at PARP1 [1] (100 nM) is given as 79%. For the same compound, the DC50 on PARP1 [1] came out at 0.014 nM. In addition, the IC50 stood at 0.32 nM at PARP1 [2] (PARP1 enzyme); 36 nM in assay [3] (MDA-MB-436, 168 h, MDA-MB-436 cells, 7 days incubation, read-out: IC50 (nM), MDA-MB-436 cell inhibitory activity); 91 nM on PARP7. Further, the “PARP1 inhibitory selectivity over PARP2 and PARP7” value on PARP1 [2] (enzyme activities in vitro) is on record as “good PARP1 inhibitory selectivity”. The inhibition at 10 µM in assay [3] (MDA-MB-436, MDA-MB-436 cells, 10 μM, read-out: Max inh. % 10 μM) was found to be 99.8%.
